In US8273404B2, “Extraction of solvents from drug containing polymer reservoirs” (Cordis Corporation, priority 2008, dated 2012):

Columns and labels:
[1] = assay type: physicochemical; conditions: 0.02 weight percent BHT per total basecoat solids
From the text: Referring to FIG. 113, there is illustrated in graphical format, the results of the same drug screening as described above with the solution applied to a cobalt-chromium, 18 mm stent. In this test, two sets of solution samples were utilized, one with sirolimus and polymer solution containing the antioxidant and one with sirolimus and polymer solution containing no antioxidant. The antioxidant utilized was 0.02 weight percent BHT per total basecoat solids. The test was utilized to determine the percent drug content change over a time period of 0 to 12 weeks under two conditions; namely, 40° C. with 75 percent relative humidity, and ambient conditions (25° C.).

LDL = assay: Ex vivo LDL peroxidation (diene conjugates after addition of copper ions) of MVP patients; set-up: species or system human; conditions: treatment for one month, preliminary results
From the text: Dietary intervention and smoking habits were similar in all groups. Probucol may simply be a more powerful antioxidant than the combination of vitamins. To this regard, preliminary results from the continuous spectrophotometric monitoring of diene conjugates in LDL after the addition of copper ions to the isolated lipoprotein ex vivo (Free Radic Res Commun 1989; 6:67-75) of MVP patients are noteworthy.

[2] = tested on: coronary restenosis after angioplasty; assay: MultiVitamins and Probucol (MVP) randomized clinical trial, angiographic and clinical endpoints; assay type: in vivo, human
From the text: It was not possible to determine with angiography alone whether probucol acted via inhibition of tissue hyperplasia or improvement in vascular remodeling. […] In addition, the invention enables the skilled practitioner to use probucol in conjunction with other percutaneous coronary interventions such as stenting if it is deemed appropriate.
(§1) Beginning thirty days prior to scheduled angioplasty, patients were randomly assigned to receive either probucol alone, multivitamins alone, the combination of probucol and multivitamins, or placebo. Probucol 500 mg or matched placebo was administered twice daily. The multivitamin complex, consisting of vitamin E 700 IU, vitamin C 500 mg and beta-carotene 30,000 IU, or matched placebo was also administered in one tablet twice daily. All patients received an extra dose of probucol 1000 mg and/or vitamin E 2000 IU and/or matched placebos twelve hours before angioplasty, according to randomization assignment. […] All patients received aspirin 325 mg daily started at least thirty days before procedure and continued for the study period. Balloon angioplasty was performed according to standard techniques. Intracoronary nitroglycerin (0.3 mg) was given for each target artery for both pre- and post-dilatation angiography and at follow-up. The sequence of contrast injections with the exact degree of angulation was recorded and used for every angiogram. Coronary arteriograms (pre-, post-procedure, and final follow-up) were analyzed together using the Coronary Measurement System (CMS), as previously reported. Patient follow-up included clinical evaluation, exercise treadmill testing, blood chemistry, pill count and drug level measurements, and dietary assessment and intervention. Patients were readmitted for follow-up coronary angiography at five to seven months. Patients in whom arteriography was performed for clinical reasons before the fifth month returned for repeat angiographic examination at five to seven months if no definite angiographic restenosis was present on at least one dilated site. During follow-up, patients with recurrence or exacerbation of anginal symptoms were treated with medical therapy or revascularization procedures (reangioplasty or Coronary Bypass Surgery) as clinically indicated. Patients with angiographic restenosis (lesion>50%. at follow-up) without clinical evidence of ischemia were not subjected to further interventional procedures.
Probucol is one of the first pharmacological interventions shown to prevent coronary restenosis after balloon angioplasty. However, its mechanism of action and its efficacy as a vascular remodeling agent has never been studied. […]

[3] = tested on: coronary arteries after balloon angioplasty; assay: IVUS substudy of the MVP restenosis trial (lumen, wall, EEM areas after balloon angioplasty); assay type: in vivo, human
Description: The present invention concerns the IVUS substudy from the MVP restenosis trial. MVP was a double-blind placebo-controlled randomized clinical trial with four study groups. The protocol was approved by the Montreal Heart Institute institutional review board. The MVP study design, inclusion and exclusion criteria have been previously described (N Engl J Med 1997; 365-372). Briefly, patients referred for elective coronary angioplasty were evaluated at least 30 days prior to their scheduled procedure. Eligible patients were asked to provide written informed consent. Patients were eligible if they were scheduled to undergo standard balloon angioplasty on at least one native coronary artery and had at least one de novo target lesion with luminal narrowing of fifty percent or more by caliper measurements.
as §1, with “Patients in whom arteriography was performed for clinical reasons before the fifth month returned for repeat angiographic examination at five to seven months if no definite angiographic restenosis was present on at least one dilated site. During follow-up, patients with recurrence or exacerbation of anginal symptoms were treated with medical therapy or revascularization procedures (reangioplasty or Coronary Bypass Surgery) as clinically indicated. Patients with angiographic restenosis (lesion>50%. at follow-up) without clinical evidence of ischemia were not subjected to further interventional procedures.” left out
IVUS examinations were performed using 30 MHZ, 3.5 French mechanical (1800 rpm) ultrasound catheters (Boston Scientific, Natick, Mass.) and a dedicated imaging console (Hewlett Packard, Andover, Mass.) (Curr Opin Cardiol 1994; 9:627-633). […] IVUS imaging was monitored by an experienced cardiologist, but the angioplasty operator was blinded to ultrasound results to avoid altering standard balloon angioplasty practice. […] One angiographic view was recorded on videotape before beginning pullback of the IVUS catheter. […]

SMILES	effect on sirolimus drug degradation on coated stent [1]	protection against LDL oxidation (lag phase for LDL peroxidation) (LDL)	patients in whom restenosis still occurred ([2]; probucol alone)	reduction of angiographic lumen loss compared to placebo ([2]; probucol given alone)	reduction of restenosis rate per segment compared to placebo ([2]; probucol given alone)	reduction of the need for repeat angioplasty at 6 month compared to placebo ([2]; probucol given alone)	reduction in lumen loss compared to non-probucol treated patients ([3]; IVUS, patients receiving probucol)	Lumen area, Follow-up Post PTCA (change) ([3]; IVUS, per segment analysis)	reduction in lumen loss compared to the placebo group only ([3]; IVUS, probucol given alone)	Lumen area, Follow-up Post PTCA (change) ([3]; efficacy analysis in compliant patients)
Cc1cc(C(C)(C)C)c(O)c(C(C)(C)C)c1 [BHT, Butylated Hydroxytoluene]	lessens drug degradation at both 8 weeks and 12 weeks	–	–	–	–	–	–	–	–	–
CC(C)(Sc1cc(C(C)(C)C)c(O)c(C(C)(C)C)c1)Sc1cc(C(C)(C)C)c(O)c(C(C)(C)C)c1 [Probucol Alone, 4,4′-([1-methylethylidene)bis(thio)]bis-[2,6-bis(1,1-dimethylethyl)phenol]]	–	significantly greater protection against LDL oxidation than vitamins alone or the combination of probucol and vitamins	over twenty percent	sixty-eight percent	forty-seven percent	fifty-eight percent	0.79 mm^2	−0.15 ± 1.70 mm^2	1.06 mm^2	−0.15 ± 1.70 mm^2
